Test results published in patent US20070093460A1, “Methods of using selective 11beta-HSD inhibitors to treat gluocorticoid associated states” (priority 2005, published 2007).
Entries after “also recorded” stand apart in the source; their conditions may differ. Like-named read-outs stand apart in the source and are kept apart here.

Tests used:
[1] = target: T1, 11β-HSD1 Dehydrogenase (Rattus norvegicus, UniProt P16232); test: 11β-HSD1 dehydrogenase assay in rat Leydig cell homogenates; assay type: biochemical; set-up: Freshly prepared rat Leydig cell homogenates were chosen since they provide a rich and reliable source of both 11β-HSD1 dehydrogenase and reductase; from tissue; host or cells: rat testicular Leydig cells, homogenate; settings: for inhibitors of 11β-HSD1 dehydrogenase (summary in words): summary of the screening;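 for all read-outs here: tritiated corticosterone conversion by 11β-HSD1 dehydrogenase in Leydig homogenates with 3 mM NADP at pH 8.4, 37 °C for 10 min, products resolved by HPLC, inhibition relative to uninhibited enzyme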
Experimental: (§1) Each enzyme reaction (described below) was stopped by adding 750 μL MeOH. After centrifugation, an aliquot of supernatant was analyzed by HPLC using a DuPont Zorbax C8 column.
(§2) 11β-HSD1 dehydrogenase was assayed by incubating homogenates (13,000 cells equivalent) with 600 nM [^3H]-B (0.5 μCi) in the presence of 3 mM NADP, 50 mM Tris-HCl; pH 8.4 at 37° C. for 10 minutes in a total volume of 250 μL. 11β-HSD1 reductase was assayed by incubating homogenates (52,000 cells equivalent) with 600 nM [^3H]-11-dehydro-corticosterone in presence of 3 mM NADPH, 50 mM Tris-HCl; pH 7.4 at 37° C. for 20 minutes in a total volume of 250 μL.
(§3) Each concentration was tested in triplicate and the dose response curve, showing percentage inhibition versus log concentration of steroid was plotted. The data fitted a log-linear straight line.

[2] = target: T2, 11β-HSD2 (Ovis aries, UniProt P50168); test: 11β-HSD2 enzyme activity in sheep kidney microsomes; assay type: biochemical
T2 construct: incubating sheep kidney microsomal fraction (6.5 μg protein) with 50 nM corticosterone; from tissue; host or cells: sheep kidney microsomal fraction
T2 sequence (P50168 1-427): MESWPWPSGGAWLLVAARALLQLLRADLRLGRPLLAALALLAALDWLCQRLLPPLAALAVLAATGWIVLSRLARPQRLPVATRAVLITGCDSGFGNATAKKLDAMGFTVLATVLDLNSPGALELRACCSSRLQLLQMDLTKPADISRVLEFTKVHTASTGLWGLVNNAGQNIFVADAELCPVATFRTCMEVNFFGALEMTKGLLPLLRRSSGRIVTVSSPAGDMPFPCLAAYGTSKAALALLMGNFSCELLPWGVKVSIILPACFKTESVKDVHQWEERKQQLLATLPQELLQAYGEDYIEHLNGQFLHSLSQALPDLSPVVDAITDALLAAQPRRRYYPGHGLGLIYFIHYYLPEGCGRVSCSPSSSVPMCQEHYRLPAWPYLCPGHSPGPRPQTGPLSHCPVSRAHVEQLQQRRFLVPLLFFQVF
Text: The enzymatic reaction was termninated by addition of methanol and synthesis of 11-dehydro-corticosterone was quantitated by HPLC as described above.

[3] = target: T3, 11β-HSD1 Reductase (Rattus norvegicus, UniProt P16232); test: 11β-HSD1 reductase assay in rat Leydig cell homogenates;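 note: rat Leydig cell homogenate incubated 20 min at 37 °C, pH 7.4, with tritiated 11-dehydro-corticosterone and 3 mM NADPH, product measured by HPLC, inhibition from triplicate dose–response curves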
Experimental: as §1, §2, §3

[4] = target: T3, 11β-HSD1 Reductase; test: Table 1: inhibition of 11β-HSD1 reductase; assay type: biochemical; settings: Table 1, inhibition in words
[5] = target: T4, 11β-HSD2 Dehydrogenase (Ovis aries, UniProt P50168); test: Table 1: inhibition of 11β-HSD2 dehydrogenase; assay type: biochemical; settings: Table 1, inhibition in words
T4 sequence (P50168 1-427): T2 sequence (P50168 1-427)

[6] = target: T1, 11β-HSD1 Dehydrogenase; test: Table 1: inhibition of 11β-HSD1 dehydrogenase; assay type: biochemical; settings: Table 1, inhibition in words
[7] = rat Leydig cell homogenates, 600 nM corticosterone, NADP, corticosteroid series
[8] = rat Leydig cell homogenates, 600 nM corticosterone, NADP, corticosteroid series, read-out: Leydig Cell 11β-HSD1 Dehydrogenase [S]= 600 nM
[9] = 11β-HSD2, sheep kidney microsomes, 50 nM corticosterone, NAD+, aldosterone, cortisol, corticosterone series, read-out: Dehydrogenase [S] = 50 nM
[10] = rat Leydig cell homogenates, 600 nM 11-dehydro-corticosterone, NADPH, corticosteroid series
[11] = rat Leydig cell homogenates, 600 nM corticosterone, progesterone and androgen derivatives, read-out: Leydig Cell 11β-HSDl Dehydrogenase [S] = 600 nM
[12] = 11β-HSD2, sheep kidney microsomes, 50 nM corticosterone, NAD+, aldosterone, cortisol, corticosterone series

T1 sequence (P16232 whole entry): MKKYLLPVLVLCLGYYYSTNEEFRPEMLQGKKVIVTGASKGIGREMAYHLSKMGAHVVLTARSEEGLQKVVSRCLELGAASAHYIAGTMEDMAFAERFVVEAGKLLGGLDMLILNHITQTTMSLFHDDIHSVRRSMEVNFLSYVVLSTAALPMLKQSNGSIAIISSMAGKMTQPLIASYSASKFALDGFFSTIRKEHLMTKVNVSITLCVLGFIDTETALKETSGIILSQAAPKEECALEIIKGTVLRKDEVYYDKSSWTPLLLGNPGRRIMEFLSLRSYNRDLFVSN
T3 sequence (P16232 whole entry): as above

SMILES	IC50 [3]	Leydig Cell 11β-HSD1 Dehydrogenase [S]= 600 nM [1, 7]	IC50 [1, 8]	IC50 [2, 9]	Leydig Cell 11β-HSD1 Reductase [S]= 600 nM [3, 10]	11β-HSD1 Reductase [4]	11β-HSD1 Dehydrogenase [6]	other results
CC(=O)[C@H]1CC[C@H]2[C@@H]3CC[C@@H]4C[C@H](O)CC[C@]4(C)[C@H]3[C@@H](O)C[C@]12C [11β-OH-pregnanolone, 5β-Pregnan-3α,11β-diol-20-one]	80 µM							IC50 [1]: 30 µM; IC50 [2]: > 10 µM; Sheep kidney 11β-HSD2 [S] = 50 nM ([2]; sheep kidney microsomes, corticosterone substrate, progesterone and androgen derivatives): inactive
C[C@]12CC[C@@H](O)C[C@@H]1CC[C@@H]1[C@@H]2[C@@H](O)C[C@@]2(C)[C@H]1CC[C@]2(O)C(=O)CO [3α,5α-TH-Cortisol, 5α-Pregnan-3α,11β,17α,21-tetrol-20-one]	> 100 µM	inactive	14 µM	8 µM	inactive			
C[C@]12CC[C@@H](O)C[C@H]1CC[C@@H]1[C@@H]2[C@@H](O)C[C@]2(C)C(=O)CC[C@@H]12 [11β-OH-etiocholanolone]								IC50 [1, 11]: > 100 µM; IC50 ([3]; read-out: Leydig Cell 11β-HSD1 Reductase [S] = 600 nM, rat Leydig cell homogenates, 600 nM 11-dehydro-corticosterone, progesterone and androgen derivatives): > 100 µM
C[C@]12CC[C@@H](O)C[C@H]1CC[C@@H]1[C@H]2[C@@H](O)C[C@]2(C)C(=O)CC[C@H]12 [3α,5β-reduced- 11β-OH- androstenedione]						No Inhibition	Moderate Inhibitor	11β-HSD2 Dehydrogenase [5]: Potent Inhibitor (Non-Selective)
C[C@]12CCC(=O)C=C1CC[C@@H]1[C@@H]2[C@@H](O)C[C@]2(C=O)[C@@H](C(=O)CO)CC[C@@H]12 [Aldosterone, 4-Pregnen-11,21-diol-3,20-dione-18-al, reference compound]	> 100 µM	inactive	> 100 µM	> 10 µM	inactive			Dehydrogenase [S] = 50 nM [2, 12]: inactive
CC(=O)[C@H]1CC[C@@H]2[C@@H]3CCC4=CC(=O)CC[C@]4(C)[C@@H]3[C@@H](O)C[C@]12C [11β-OH-Progesterone, 4-Pregnen-11β-ol-3,20-dione]	> 100 µM					No Inhibition	Potent Inhibitor (Non-Selective)	IC50 [1, 11]: 5.6 µM; inhibitors of 11β-HSD1 dehydrogenase (summary in words) [1]: potent inhibitors; also recorded: high potency; inhibitors of 11β-HSD1 dehydrogenase (summary in words) ([1]; listed as 11β-hydroxy-progesterone): potently inhibit; Leydig Cell 11β-HSD1 Reductase [S]= 600 nM ([3]; rat Leydig cell homogenates, 600 nM 11-dehydro-corticosterone, progesterone and androgen derivatives): inactive
C[C@]12CC[C@@H](O)C[C@H]1CC[C@@H]1[C@@H]2[C@@H](O)C[C@]2(C=O)[C@@H](C(=O)CO)CC[C@@H]12 [3α,5β-TH-Aldosterone, 5β-Pregnan-3α,11β,21-triol-20-one-18-al]		inactive	> 100 µM	> 10 µM	inactive			Dehydrogenase [S] = 50 nM [2, 12]: inactive; IC50 ([3]; read-out: Leydig Cell 11β-HSD1 Reductase [S]= 600 nM, rat Leydig cell homogenates, 600 nM 11-dehydro-corticosterone, NADPH, corticosteroid series): > 100 µM
C[C@]12CC[C@@H](O)C[C@H]1CC[C@@H]1[C@@H]2C(=O)C[C@@]2(C)[C@H]1CC[C@]2(O)C(=O)CO [3α,5β-TH-Cortisone, 5β-Pregnan-3α, 17α,21-triol-11,20-dione]	60 µM		> 100 µM					
C[C@H](CCC(=O)O)[C@H]1CC[C@H]2[C@@H]3[C@H](O)C[C@@H]4C[C@H](O)CC[C@]4(C)[C@H]3CC[C@]12C [chenodeoxycholic acid]						No Inhibition	Selective inhibitor	11β-HSD2 Dehydrogenase [5]: No Inhibition
C[C@]12CC[C@@H](O)C[C@@H]1CC[C@@H]1[C@@H]2[C@@H](O)C[C@]2(C)C(=O)CC[C@@H]12 [11β-OH-androsterone, 5α-Androstan-3ct,11β-diol-17-one]	> 100 µM							IC50 [1]: > 100 µM; IC50 [2]: > 10 µM
